The term IC50 denotes the concentration at which inhibition is half-maximal. A lower IC50 goes with inhibition by little substance.

The source made the active and inactive calls. The calls are words filed in the database; no cut-off is given here.

One assay concerns the target T1, Tyrosinase (Agaricus bisporus, UniProt O42713).
T1 sequence (O42713 whole entry): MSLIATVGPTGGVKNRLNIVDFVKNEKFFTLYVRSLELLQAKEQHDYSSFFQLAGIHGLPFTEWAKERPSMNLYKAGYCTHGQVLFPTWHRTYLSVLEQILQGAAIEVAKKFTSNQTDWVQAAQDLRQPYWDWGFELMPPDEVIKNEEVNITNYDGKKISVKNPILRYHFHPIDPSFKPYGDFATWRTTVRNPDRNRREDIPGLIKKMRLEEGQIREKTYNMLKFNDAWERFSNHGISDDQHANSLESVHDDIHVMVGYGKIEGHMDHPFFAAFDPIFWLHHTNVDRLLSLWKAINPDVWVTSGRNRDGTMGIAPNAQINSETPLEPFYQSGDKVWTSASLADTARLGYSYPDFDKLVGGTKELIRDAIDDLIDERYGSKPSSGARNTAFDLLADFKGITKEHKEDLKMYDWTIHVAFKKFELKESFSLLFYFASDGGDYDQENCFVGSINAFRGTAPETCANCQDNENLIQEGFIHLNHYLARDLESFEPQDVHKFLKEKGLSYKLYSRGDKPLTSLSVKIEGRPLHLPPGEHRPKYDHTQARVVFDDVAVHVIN

For assay [1], the target named is T2, Tyrosinase (Agaricus bisporus) (UniProt O42713).
T2 sequence (whole entry): T1 sequence (O42713 whole entry)
Description: Inhibition of Mushroom tyrosinase

Consider `CC1=C2C3=C4[C@](C)([C@@H]5C[C@@H]5[C@@]4(O)C[C@@H]4[C@]35OC(=O)C3=C5C[C@H]5[C@](O)(COC(=O)/C(C)=C/COC(=O)CCC(=O)OC3)[C@H]3C[C@H]3[C@]45C)[C@@H](O)[C@]2(O)OC1=O` [TIANMUSHANOL], for which the IC50 against Tyrosinase was 358 µM.

Consider `CC1=C2C/C=C(\C)CC/C=C(\C)C[C@@H]2OC1=O`, for which, in assay [1], the result was inactive.

Consider `C=C1CCC[C@]2(C)C[C@]3(O)OC(=O)C(C)=C3C[C@@H]12`, for which the result in assay [1] was inactive.

On to `C=C1[C@H]2C[C@H]2[C@]2(C)C=C3OC(=O)C(C)=C3C[C@@H]12`, for which, in assay [1], the result was inactive.

As for `CO[C@@]12OC(=O)C(C)=C1C1=C3[C@](C)([C@@H]4C[C@@H]4[C@@]3(O)C[C@@H]3[C@]14OC(=O)C1=C4C[C@H]4[C@](O)(COC(=O)/C(C)=C/COC(=O)CCC(=O)OC1)[C@H]1C[C@H]1[C@]34C)[C@H]2O`, on Tyrosinase, the half-inhibitory concentration (IC50) came to 312 µM.

On to `C/C1=C\Cc2c(C)coc2C/C(C)=C/CC1`, for which, in assay [1], the outcome was inactive.

Values taken from ChEMBL document CHEMBL1149901, “Complex sesquiterpenoids with tyrosinase inhibitory activity from the leaves of Chloranthus tianmushanensis” (J Nat Prod, 2008).
